Among the test systems are BT-549 breast; K-562 leukemia; LOX IMVI melanoma; OVCAR-4 ovarian; SF-539 CNS; SK-MEL-2 melanoma; SN12C renal; TK-10 renal; U251 CNS.
Holding throughout (test): growth of human tumour cells (NCI), 48 h

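Test compounds were applied to cells in 96-well plates for 48 hours at 5 doses. TGI is the concentration that stops growth completely.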 Some results are limits rather than exact numbers.

The source of these data is PubChem BioAssay (NCI).

With `COc1ccc(-c2c(C#N)c(-c3ccccc3)n(NS(=O)(=O)c3ccccc3)c(=O)c2C#N)cc1`, the TGI in the test on BT-549 breast, in the test with K-562 leukemia, in the test with LOX IMVI melanoma, with OVCAR-4 ovarian, in the test on SF-539 CNS and with SK-MEL-2 melanoma was over 100 µM each time. For the same compound, the TGI in the test with SN12C renal, in the test on TK-10 renal and with U251 CNS was over 100 µM throughout.
Consider `CCOP(=O)(OCC)C(Nc1ccc(F)cc1)c1cccc([N+](=O)[O-])c1` (stereo not given), for which the TGI with BT-549 breast, in the test with K-562 leukemia, in the test with LOX IMVI melanoma, in the test with OVCAR-4 ovarian, in the test with SF-539 CNS and in the test on SK-MEL-2 melanoma was over 100 µM throughout. In addition, the TGI in the test on SN12C renal, with TK-10 renal and with U251 CNS was over 100 µM each time.
With `CCOC(=O)C1=C(C)NC(=S)NC1c1cccc(O)c1` (stereo not given), the TGI with BT-549 breast was over 100 µM; with K-562 leukemia, over 100 µM; in the test with LOX IMVI melanoma, over 100 µM; with OVCAR-4 ovarian, over 100 µM; in the test on SF-539 CNS, over 100 µM; in the test on SK-MEL-2 melanoma, 79 µM. The results for the TGI in the test on SN12C renal, in the test on TK-10 renal and with U251 CNS were over 95.3 µM, over 100 µM and over 96.5 µM, respectively.
On to `CSC(=NC1=NC(C(F)(F)F)(C(F)(F)F)N=C(c2ccccc2)O1)SC`, for which the TGI in the test with BT-549 breast is 82.4 µM; in the test on K-562 leukemia, over 100 µM; in the test with LOX IMVI melanoma, 42.8 µM; in the test on OVCAR-4 ovarian, 59.1 µM; in the test on SF-539 CNS it was over 100 µM; with SK-MEL-2 melanoma, 55.9 µM. For the same compound, the TGI is 42.9 µM in the test on SN12C renal, over 100 µM in the test on TK-10 renal and 75.2 µM with U251 CNS.
On to `CN(C(=O)c1ccc(Cl)s1)C(=S)N(C)C(=O)c1ccc(Cl)s1`, for which the TGI with BT-549 breast, with K-562 leukemia, in the test with LOX IMVI melanoma, in the test with OVCAR-4 ovarian, in the test with SF-539 CNS and in the test on SK-MEL-2 melanoma was over 10 µM throughout. Also, the TGI with SN12C renal, in the test with TK-10 renal and with U251 CNS was over 10 µM throughout.
On to `N#CCCN(CCCN(C(=O)Nc1ccccc1)c1ccccc1)C(=O)Nc1ccccc1`, for which the TGI in the test with BT-549 breast, with K-562 leukemia, in the test on LOX IMVI melanoma, with OVCAR-4 ovarian, in the test on SF-539 CNS and in the test on SK-MEL-2 melanoma was over 100 µM throughout. The TGI in the test with SN12C renal, with TK-10 renal and in the test with U251 CNS was over 100 µM throughout.
Turning to `O=C(/C=C/c1ccc([N+](=O)[O-])cc1)c1nc2ccccc2[nH]1`, the TGI in the test on BT-549 breast is over 100 µM; in the test with K-562 leukemia, over 61.5 µM; with LOX IMVI melanoma, over 100 µM; in the test with OVCAR-4 ovarian, over 100 µM; in the test with SF-539 CNS, over 73.6 µM; with SK-MEL-2 melanoma, over 100 µM. Besides, the TGI in the test on SN12C renal is over 100 µM; in the test on TK-10 renal it was over 37.8 µM; in the test on U251 CNS it was over 100 µM.
`CC(C)n1c(=O)n(-c2ccccc2)n(C(C)(C)C)c1=O`: the TGI with BT-549 breast, in the test with K-562 leukemia, in the test on LOX IMVI melanoma, in the test on OVCAR-4 ovarian, in the test with SF-539 CNS and in the test with SK-MEL-2 melanoma was over 100 µM throughout. Besides, the TGI in the test with SN12C renal, in the test with TK-10 renal and in the test with U251 CNS was over 100 µM in each case.
`O=C1c2ccccc2CC12Cc1ccc3c(c1C2)CCC3` (stereo not given): the TGI in the test with BT-549 breast was over 100 µM; with K-562 leukemia, over 100 µM; in the test on LOX IMVI melanoma, 24.8 µM; in the test with OVCAR-4 ovarian, over 100 µM; with SF-539 CNS, 90.2 µM; in the test with SK-MEL-2 melanoma, 30.2 µM. Further, the TGI in the test on SN12C renal was over 100 µM; in the test on TK-10 renal, 26.7 µM; in the test on U251 CNS, 38 µM.
Consider `Cc1ccc2c(c1)OC1Nc3ccccc3C1=C2O` (stereo not given), for which the TGI was 66.1 µM with BT-549 breast; over 100 µM in the test with K-562 leukemia; 71.5 µM in the test with LOX IMVI melanoma; over 100 µM in the test with OVCAR-4 ovarian; 44.4 µM with SF-539 CNS; 47.6 µM with SK-MEL-2 melanoma. Moreover, the TGI with SN12C renal was 93.4 µM; with TK-10 renal, 78.3 µM; with U251 CNS it was 57.5 µM.
On to `CCOC(=O)c1cn(-c2ccc(Cl)cc2)c(=O)n2c1nc1ccccc12`, for which the TGI in the test on BT-549 breast, with K-562 leukemia, in the test with LOX IMVI melanoma, with OVCAR-4 ovarian, with SF-539 CNS and in the test with SK-MEL-2 melanoma was over 100 µM each time. In addition, the TGI with SN12C renal and with U251 CNS was over 100 µM in each case.
`COc1cc(C2C3=C(COC3=O)OC(C)(C)Oc3cc4c(cc32)OCO4)cc(OC)c1OC` (stereo not given): the TGI in the test with BT-549 breast is over 100 µM; with K-562 leukemia, over 36 µM; in the test with LOX IMVI melanoma it was over 100 µM; in the test with OVCAR-4 ovarian, over 96.2 µM; in the test on SF-539 CNS it was 0.582 µM; in the test with SK-MEL-2 melanoma, 70.1 µM. The TGI with SN12C renal, with TK-10 renal and in the test with U251 CNS was over 100 µM throughout.
With `N#Cc1c2c(c(N3CCOCC3)n3c1nc1ccccc13)CCCC2`, the TGI with BT-549 breast is over 100 µM; in the test on K-562 leukemia, over 100 µM; in the test on LOX IMVI melanoma, 41.1 µM; with OVCAR-4 ovarian, 51.4 µM; in the test on SF-539 CNS it was 39.3 µM; in the test with SK-MEL-2 melanoma, 31.8 µM. Besides, the TGI in the test on SN12C renal came to 45.8 µM; in the test with TK-10 renal it was 49.3 µM; in the test on U251 CNS, 28.3 µM.
With `O=C(Nc1cccc(-c2cn3ccccc3n2)c1)c1ccncc1`, the TGI in the test on BT-549 breast was 72 µM; with K-562 leukemia, 61 µM; in the test with LOX IMVI melanoma, over 100 µM; in the test on OVCAR-4 ovarian, over 100 µM; in the test on SF-539 CNS it was over 100 µM; in the test with SK-MEL-2 melanoma, 46.5 µM. For the same compound, the TGI in the test on SN12C renal, in the test on TK-10 renal and with U251 CNS was over 100 µM throughout.
